According to patent US6716422B1, “Vaccine adjuvants for immunotherapy of melanoma” (ARCH Development Corporation, priority 1998, dated 2004):
Ends that are not written are not given here.

Columns and labels:
[1] = tested on: refractory metastatic melanoma; assay: Human vaccination study: clinical outcome; assay type: in vivo; conditions: one line per patient
Description: Evaluation of tumor regression is a secondary endpoint in this study. Tumor masses are characterized carefully with bidimensional measurements.
Criteria for a Partial Response (PR): 50% reduction in the sum of the product of the largest perpendicular diameters of the indicator lesions identified prior to therapy.
Criteria for a Complete Response (CR): total disappearance of all evidence of tumor without appearance of new lesions.
Criteria for Progressive Disease (PD): appearance of new lesions; and/or fifty percent increase in the sum of the product of the largest perpendicular diameters of the indicator lesions.
Criteria for Stable Disease (SD): Failure to meet the criteria for a Partial Response, Complete Response, or Progressive Disease.

[2] = tested on: melanoma cell lines expressing MAGE-3; conditions: activated B cells or dendritic cells, HLA-A2 donor; only if IL-12 included during initial stimulation; cited from earlier work
[3] = tested on: peptide-specific, IFN-γ-producing CD8+ T cells; assay: Human vaccination study: peptide-specific T cell response; conditions: one line per patient
Protocol: Following immunization, assays for peptide specific CTL activity and cytokine production, in particular IFN-γ were conducted.
For each vaccination, 100 cc heparinized blood was obtained and PBMC isolated by Lymphoprep centrifugation. A portion of cells was set aside and separated into CD8+ and CD8-fractions for cryopreservation.
Pulsed PBMC were irradiated (2000 rad), centrifuged, and resuspended in 2 cc DPBS for injection.
Injection of pulsed PBMC was performed subcutaneously, divided between 2 sites, either in upper arms or proximal legs.
rhIL-12, at the assigned dose level (ng/kg), was injected subcutaneously near one of the two vaccine sites.
The entire procedure was repeated every 3 weeks, with clinical reevaluation every 3 cycles.
In vitro expansion of CD8^+ T cells for testing was performed using minimal activation conditions: peptide-pulsed CD8-negative cells as APCs, only 10 U/ml rIL-2 added on day 2 of each stimulation, with one 6-day stimulation followed by a second 4-5 day stimulation.

[4] = Relative hydrophilicity/solubility of tumor peptides; assay type: physicochemical
Protocol: Peptides encoded by several of the unique tumor antigens of the tum^− variants have been defined, such as the P198 peptide used in one of the examples herein. […] Therefore, initial peptide-based immunization studies were performed using the more soluble P198 peptide. Information gained was then examined using P1A peptide as well. Studies with P1A are important in order to measure efficacy of immunization in vivo in terms of protection against living tumor challenge and regression of pre-established tumors. These types of studies would not be possible with P198 because that tumor is rejected spontaneously.

[5] = cited from earlier work
[6] = tested on: advanced renal cell carcinoma; conditions: cited from earlier work
[7] = cited from earlier work; remark: listed apart in the source
[8] = room temperature; cited from earlier work

FLWGPRALV [Mage3]
Clinical Outcome ([1]; IL-12 dose 0): PD (appearance of new lesions; and/or fifty percent increase in the sum of the product of the largest perpendicular diameters of the indicator lesions)
Clinical Outcome ([1]; IL-12 dose 30 ng/kg): PD (appearance of new lesions; and/or fifty percent increase in the sum of the product of the largest perpendicular diameters of the indicator lesions)
Clinical Outcome ([1]; IL-12 dose 100 ng/kg): PD (appearance of new lesions; and/or fifty percent increase in the sum of the product of the largest perpendicular diameters of the indicator lesions)
Induction of specific CTL [2]: specific CTL induced
Evidence Immunized? ([3]; IL-12 dose 0): No
Evidence Immunized? ([3]; IL-12 dose 30 ng/kg): Yes

KYQAVTTTL [P198 peptide]
Hydrophilicity relative to P1A peptide [4]: more hydrophilic than the P1A peptide

rhIL-12: recombinant human interleukin-12, manufactured by the Genetics Institute
Toxicities ([5]; intravenous, 3-1000 ng/kg/day): transient cytopenias (nadirs occurring 2-5 days after treatment), reversible increases of transaminases and bilirubin, transient hyperglycemia, stomatitis, and capillary leak syndrome
Maximally tolerated dose ([5]; intravenous, single test dose, 2 wk later daily for 5 days, every 3 wk): 500 ng/kg/day
Tumor responses ([5]; patients with various malignancies): several tumor responses observed
Patients requiring hospitalization for adverse events ([6]; 500 ng/kg/day intravenously 5 times per wk, 16 day rest): 12 of the 17
Deaths attributed to rhIL-12 ([6]; 500 ng/kg/day intravenously): Two
Patient deaths ([6]; 500 ng/kg/day intravenously): 4
Tolerability ([7]; in vivo): well tolerated
Renal cell carcinoma patients with a minor response ([7]; subcutaneous schedule): Two
Time within which unit doses in a syringe must be used [8]: ≤ 4 h
